{
  "source": "patent US20080300147A1",
  "about": "“Detection and Treatment of Fibrotic Disorders” (priority 2004, published 2008)",
  "system": "leiomyoma smooth muscle cells (LSMC)",
  "experiment": "Realtime PCR mRNA expression in treated LSMC",
  "format": "cell-based, human",
  "description": "Isolation and Culture of Leiomyoma and Myometrial Smooth Muscle Cells. […] Only untreated tissues were used for isolation of LSMC and MSMC. […] LSMC and MSMC were cultured in 6-well plates at an approximate density of 10^6 cells/well in DMEM-supplemented media containing 10% FBS. After reaching visual confluence, the cells were washed in serum-free media and incubated for 24 hrs under serum-free, phenol red-free condition (Chegini, N et al. Mol Hum Reprod, 2002, 8:1071-8).\nQuantitative RealTime PCR. Realtime PCR was utilized for verification of 10 differentially expressed and regulated genes identified in leiomyoma and myometrium as well as LSMC and MSMC from untreated and GnRHa-treated cohorts. The selection of these genes was based not only on their expression values (up or downregulation), but classification and biological functions important to leiomyoma growth and regression, regulation by ovarian steroids, GnRHa and TGF-β. They are IL-11, CITED2, Nur77, EGR3, TGIF, TIEG, p27, p57, GAS-1 and GPRK5 representing cytokines, transcription factors, cell cycle regulators and signal transduction.\nDetermination of TGF-β1 on global gene expression in LSMC and MSMC. All the materials utilized for this study including isolation of leiomyoma and myometrial cells are identical to those described in detail above. To determine the effect of TGF-β1 on global gene expression in LSMC and MSMC, the cells were cultured in 6-well plates at approximate density of 10^6 cells/well in DMEM-supplemented media containing 10% FBS. […] The cells were then treated with 2.5 ng/ml of TGF-β1 (R & D System, Minneapolis, […].) for 2, 6 and 12 hours. […] The cells were washed and then treated with TGF-β1 (2.5 ng/ml) for 2 hours. Parallel experiments using untreated cells were used as controls including an additional control for TGF-β type II receptor antisense and sense experiments.\nTotal cellular RNA was isolated from LSMC- and MSMC-treated and untreated controls and subjected to microarray analysis. To maintain standard and allow for comparative analysis, the GeneChips used in this study were utilized, simultaneously processed and their gene expression values were subjected to global normalization and transformation. Following these unsupervised assessments the coefficient of variation was calculated for each probe set across all the chips used in this study, and the selected gene expression values of this study were independently subjected to supervised learning including R programming analysis and ANOVA with false discovery rate selected at p<0.001 (Moustakas, A. Immunol Lett, 2002, 82:85-91; Verrecchia, F. et al. J Biol Chem, 2001, 276:17058-17062). The genes identified in these cohorts were analyzed for functional annotation and visualized using Database for Annotation, Visualization, and Integrated Discovery (DAVID) software with integrated GoCharts. Following the analysis, we selected 12 of the differentially expressed and regulated genes, including 10 identified and validated in leiomyoma and myometrium from untreated and GnRHa-treated cohorts, as well as LSMC and MSMC treated in vitro with GnRHa, for validation in response to TGF-β-time dependent action using Realtime PCR. They include IL-11, EGR3, CITED2, TIEG, TGIF, Nur77, p27, p57, GAS-1 and GPRK5. In addition, the expression of Runx1 and Runx2, transcription factors that interact with TGF-β receptor signaling pathways (Zavadil, J. et al. Proc Natl Acad Sci USA, 2001, 98:6686-6691), was validated in LSMC and MSMC as well as in leiomyoma and myometrium from GnRHa-treated and untreated cohorts. Detail description of the materials and methods for Realtime PCR as well as data analysis is provided in Chegini, N. et al. J Soc Gynecol Investig, 2003, 10:161-71.\nIsolation and Culture of Leiomyoma and Myometrial Smooth Muscle Cells. Leiomyoma and myometrial smooth muscle cells (LSMC and MSMC) were isolated and cultured as previously described (Chegini, N. et al. Mol Hum Reprod, 2002, 8:1071-1078). […]",
  "key": {"[1]": {"conditions": "GnRHa 0.1 μM, 2, 6 and 12 hours"}},
  "data": [
    {"smiles": "CCNC(=O)[C@@H]1CCCN1C(=O)[C@H](CCCNC(=N)N)NC(=O)[C@H](CC(C)C)NC(=O)[C@@H](CC(C)C)NC(=O)[C@H](Cc1ccc(O)cc1)NC(=O)[C@H](CO)NC(=O)[C@H](Cc1c[nH]c2ccccc12)NC(=O)[C@H](Cc1c[nH]cn1)NC(=O)[C@@H]1CCC(=O)N1", "note": "[GnRHa, leuprolide acetate]", "values": [
      {"measurement": "CITED2 expression in LSMC", "setting": "[1]", "result": "inhibiting"},
      {"measurement": "GPRK5 expression in LSMC", "setting": "[1]", "result": "inhibits"},
      {"measurement": "CCN2 mRNA expression in LSMC", "setting": "GnRHa 0.1 μM, 2, 6 and 12 hrs", "result": "inhibited"},
      {"measurement": "CCN3 mRNA expression in LSMC", "setting": "GnRHa 0.1 μM, 2, 6 and 12 hrs", "result": "inhibited"},
      {"measurement": "CCN4 mRNA expression in LSMC", "setting": "GnRHa 0.1 μM, 2, 6 and 12 hrs", "result": "inhibited"},
      {"measurement": "S100A4 mRNA expression in LSMC", "setting": "GnRHa 0.1 μM, 2, 6 and 12 hrs", "result": "inhibited"},
      {"measurement": "fibulin-1C mRNA expression in LSMC", "setting": "GnRHa 0.1 μM, 2, 6 and 12 hrs", "result": "inhibited"},
      {"measurement": "FMOD expression in LSMC", "setting": "GnRHa 0.1 μM, 2 and 6 hrs", "result": "no significant effect"},
      {"measurement": "FMOD expression in LSMC", "setting": "GnRHa 0.1 μM, 12 hrs", "result": "inhibited"},
      {"measurement": "IL-11 expression in LSMC", "setting": "GnRHa 0.1 μM, within 2 to 6 hours, control levels after 12 hours", "result": "increased"},
      {"measurement": "Nur77 expression in LSMC", "setting": "GnRHa 0.1 μM, subsequently fell below untreated levels", "result": "rapid induction"}
    ]}
  ]
}
